Data reported in patent US7880002B2, “Substituted piperazinyl-pyrrolidine compounds useful as chemokine receptor antagonists” (Millennium Pharmaceuticals, Inc., priority 2004, dated 2011).

The compounds below were run against T1, CCR1 (Homo sapiens, UniProt P32246) (assay: CCR1 inhibition (THP-1 FLIPR assay / THP-1 whole cell radioligand binding assay; the patent does not say which gave the values)). Conditions: threshold list, less than 100 nm; compounds of Table 1; read-out: inhibitory activity.
T1 construct: a monocytic derived cell line that endogenously expresses CCR1; host or cells: THP-1 cells
T1 sequence (P32246 1-355): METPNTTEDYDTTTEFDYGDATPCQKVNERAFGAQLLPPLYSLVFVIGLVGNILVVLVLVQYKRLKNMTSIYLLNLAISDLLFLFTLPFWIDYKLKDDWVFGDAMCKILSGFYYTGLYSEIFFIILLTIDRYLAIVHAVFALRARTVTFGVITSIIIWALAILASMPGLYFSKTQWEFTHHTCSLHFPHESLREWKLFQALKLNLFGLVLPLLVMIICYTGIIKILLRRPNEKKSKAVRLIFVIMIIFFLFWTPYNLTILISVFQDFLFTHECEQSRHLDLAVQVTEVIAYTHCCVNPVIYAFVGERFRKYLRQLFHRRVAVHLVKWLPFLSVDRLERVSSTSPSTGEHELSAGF
Type: cell-based
Method: The primary screening assay is a FLIPR® (Fluorometric Imaging Plate Reader, available from Molecular Devices Corporation, Sunnyvale, Calif.) assay using THP-1 cells (ATCC, Catalog No. TIB 202), a monocytic derived cell line that endogenously expresses CCR1.
The cells were resuspended at 1×10^6 cells/ml in dye loading media (growth media (RPMI+10% FBS (Fetal Bovine serum)+5.5×10^−5M 2-mercaptoethanol)+10 mM HEPES (N-2-hydroxyethylpiperazine-N′-2-ethane-sulfonic acid)+2.5 mM probenecid+fluo-3 (1:250)). The cells were incubated for 1 hour at 37° C. and then washed in FLIPR wash buffer (100 mL 10× HBSS (Hanks Buffered Saline Solution) (w/Ca++/Mg++)+20 mL 1M HEPES+1 g BSA+10 mL 250 mM probenecid+water (to make 1 L)) and plated at 50,000 cells/well in black/clear 384 well plates. The plates were transferred to FLIPR where the ability of different concentrations of compounds to inhibit RANTES induced calcium flux was assessed. Inhibition of the CCR1 response was reflected by a decrease of the fluorescence signal relative to the positive controls (RANTES alone).
THP-1 Whole Cell Radioligand Binding Assay
The cells were washed with PBS (phosphate buffered saline) and resuspended in binding buffer (10 mM HEPES pH 7.2, 1× HBSS (w/Ca^2+, Mg^2+) 0.5% BSA, 0.02% Na-azide) at 4×10^6 cells/ml (for 200, 000 cells/well). Cells were incubated with 0.1 to 0.2 nM [^125I]-labeled MIP-1α with or without unlabeled competitor (MIP-1α) or various concentrations of compounds for 60 minutes at room temperature. The assay was terminated by vacuum filtration through glass fiber filters (GF/B, Packard) which were presoaked in 0.3% polyethyleneimine. The filters were washed with wash buffer (10 mM HEPES, pH 7.2, 1 mM CaCl2, 5 mM MgCl2 0.5M NaCl), dried and the amount of bound radioactivity was determined by scintillation counting.

IC50, < 100 nM:
O[C@@H]1CN(c2ncnc3cc(Cl)ccc23)C[C@H]1N1CCN(Cc2ccc(F)cc2)CC1 (stereo in doubt) [Example 115, 1-(7-chloroquinazolin-4-yl)-4-[4-(4-fluorobenzyl)piperazin-1-yl]pyrrolidin-3-ol]
Cc1nc(C(F)(F)F)nc(N2C[C@@H](O)[C@H](N3CCN(C(=O)c4ccc(Cl)cc4)CC3)C2)c1C (stereo in doubt) [Example 119, 4-[4-(4-chlorobenzoyl)piperazin-1-yl]-1-[5,6-dimethyl-2-(trifluoromethyl)pyrimidin-4-yl]pyrrolidin-3-ol]
CCc1cc(C(F)(F)F)nc(N2C[C@@H](O)[C@H](N3CCN(C(=O)c4ccc(Cl)cc4)CC3)C2)n1 (stereo in doubt) [Example 121, 4-[4-(4-chlorobenzoyl)piperazin-1-yl]-1-[4-ethyl-6-(trifluoromethyl)pyrimidin-2-yl]pyrrolidin-3-ol]
CC(C)c1cc(C(F)(F)F)nc(N2C[C@@H](O)[C@H](N3CCN(C(=O)c4ccc(Cl)cc4)CC3)C2)n1 (stereo in doubt) [Example 123, 4-[4-(4-chlorobenzoyl)piperazin-1-yl]-1-[4-isopropyl-6-(trifluoromethyl)pyrimidin-2-yl]pyrrolidin-3-ol]
Cc1nc2ccccc2nc1N1C[C@H](O)[C@@H](N2CCN(C(=O)c3ccc(Cl)cc3)CC2)C1 (stereo in doubt) [Example 125, 4-[4-(4-chlorobenzoyl)piperazin-1-yl]-1-(3-methylquinoxalin-2-yl)pyrrolidin-3-ol]
O=C(c1ccc(Cl)cc1)N1CCN([C@H]2CN(c3cc(C(F)(F)F)c4ccccc4n3)C[C@@H]2O)CC1 (stereo in doubt) [Example 127, 4-[4-(4-chlorobenzoyl)piperazin-1-yl]-1-[4-(trifluoromethyl)quinolin-2-yl]pyrrolidin-3-ol]
O=C(c1ccc(Cl)cc1)N1CCN([C@H]2CN(c3ncnc4cc(C(F)(F)F)ccc34)C[C@@H]2O)CC1 (stereo in doubt) [Example 132, 4-[4-(4-chlorobenzoyl)piperazin-1-yl]-1-[7-(trifluoromethyl)quinazolin-4-yl]pyrrolidin-3-ol]
Cc1cc(N2C[C@@H](O)[C@H](N3CCN(C(=O)c4ccc(Cl)cc4)CC3)C2)nc(C(F)(F)F)n1 (stereo in doubt) [Example 146, 4-[4-(4-chlorobenzoyl)piperazin-1-yl]-1-[6-methyl-2-(trifluoromethyl)pyrimidin-4-yl]pyrrolidin-3-ol]
O=C(c1ccc(Cl)cc1)N1CCN([C@@H]2CN(c3ncnc4cc(Cl)c(F)cc34)C[C@H]2O)CC1 (stereo in doubt) [Example 161, 4-[4-(4-chlorobenzoyl)piperazin-1-yl]-1-(7-chloro-6-fluoroquinazolin-4-yl)pyrrolidin-3-ol]
COc1ccc2nc(C(F)(F)F)nc(N3C[C@H](O)[C@@H](N4CCN(C(=O)c5ccc(Cl)cc5)CC4)C3)c2c1 (stereo in doubt) [Example 165, 4-[4-(4-chlorobenzoyl)piperazin-1-yl]-1-[6-methoxy-2-(trifluoromethyl)quinazolin-4-yl]pyrrolidin-3-ol]
O=C(c1ccc(Cl)cc1)N1CCN([C@H]2CN(c3nc(C(F)(F)F)nc4cc(F)ccc34)C[C@@H]2O)CC1 (stereo in doubt) [Example 171, 4-[4-(4-chlorobenzoyl)piperazin-1-yl]-1-[7-fluoro-2-(trifluoromethyl)quinazolin-4-yl]pyrrolidin-3-ol]
O=C(c1ccc(Cl)cc1)N1CCN([C@H]2CN(c3nc(C(F)(F)F)nc4cccc(F)c34)C[C@@H]2O)CC1 (stereo in doubt) [Example 172, 4-[4-(4-chlorobenzoyl)piperazin-1-yl]-1-[5-fluoro-2-(trifluoromethyl)quinazolin-4-yl]pyrrolidin-3-ol]
O=C(c1ccc(Cl)cc1)N1CCN([C@H]2CN(c3nc(C(F)(F)F)nc4ccc(Cl)cc34)C[C@@H]2O)CC1 (stereo in doubt) [Example 173, 4-[4-(4-chlorobenzoyl)piperazin-1-yl]-1-[6-chloro-2-(trifluoromethyl)quinazolin-4-yl]pyrrolidin-3-ol]
Cc1ccc2nc(C(F)(F)F)nc(N3C[C@H](O)[C@@H](N4CCN(C(=O)c5ccc(Cl)cc5)CC4)C3)c2c1 (stereo in doubt) [Example 174, 4-[4-(4-chlorobenzoyl)piperazin-1-yl]-1-[6-methyl-2-(trifluoromethyl)quinazolin-4-yl]pyrrolidin-3-ol]
O=C(c1ccc(Cl)cc1)N1CCN([C@H]2CN(c3nc(C(F)(F)F)nc4cccc(Cl)c34)C[C@@H]2O)CC1 (stereo in doubt) [Example 176, 4-[4-(4-chlorobenzoyl)piperazin-1-yl]-1-[5-chloro-2-(trifluoromethyl)quinazolin-4-yl]pyrrolidin-3-ol]
O=C(c1ccc(Cl)cc1)N1CCN([C@H]2CN(c3nc(C(F)(F)F)nc4c(F)cccc34)C[C@@H]2O)CC1 (stereo in doubt) [Example 178, 4-[4-(4-chlorobenzoyl)piperazin-1-yl]-1-[8-fluoro-2-(trifluoromethyl)quinazolin-4-yl]pyrrolidin-3-ol]
O=C(c1ccc(Cl)cc1)N1CCN([C@H]2CN(c3nc(C(F)(F)F)nc4cc(F)c(F)cc34)C[C@@H]2O)CC1 (stereo in doubt) [Example 179, 4-[4-(4-chlorobenzoyl)piperazin-1-yl]-1-[6,7-difluoro-2-(trifluoromethyl)quinazolin-4-yl]pyrrolidin-3-ol]
COC(=O)c1ccc2nc(C(F)(F)F)nc(N3C[C@@H](O)[C@H](N4CCN(C(=O)c5ccc(Cl)cc5)CC4)C3)c2c1 (stereo in doubt) [Example 180, methyl 4-{3-[4-(4-chlorobenzoyl)piperazin-1-yl]-4-hydroxypyrrolidin-1-yl}-2-(trifluoromethyl)quinazoline-6-carboxylate]
O=C(O)c1ccc2nc(C(F)(F)F)nc(N3C[C@@H](O)[C@H](N4CCN(C(=O)c5ccc(Cl)cc5)CC4)C3)c2c1 (stereo in doubt) [Example 181, 4-{3-[4-(4-chlorobenzoyl)piperazin-1-yl]-4-hydroxypyrrolidin-1-yl}-2-(trifluoromethyl)quinazoline-6-carboxylic acid]
CCOc1ccc2nc(C(F)(F)F)nc(N3C[C@H](O)[C@@H](N4CCN(C(=O)c5ccc(Cl)cc5)CC4)C3)c2c1 (stereo in doubt) [Example 184, 4-[4-(4-chlorobenzoyl)piperazin-1-yl]-1-[6-ethoxy-2-(trifluoromethyl)quinazolin-4-yl]pyrrolidin-3-ol]
Nc1ccc2nc(C(F)(F)F)nc(N3C[C@H](O)[C@@H](N4CCN(C(=O)c5ccc(Cl)cc5)CC4)C3)c2c1 (stereo in doubt) [Example 186, 1-[6-amino-2-(trifluoromethyl)quinazolin-4-yl]-4-[4-(4-chlorobenzoyl)piperazin-1-yl]pyrrolidin-3-ol]
